Measured values published in US20080287396A1, “Phosphonated Fluoroquinolones, Antibacterial Analogs Thereof, and Methods for the Prevention and Treatment of Bone and Joint Infections” (TARGANTA THERAPEUTICA INC., priority 2005, published 2008).
Entries after “also recorded” stand apart in the source; their conditions may differ.

Experiments:
[1] = Regeneration of drug from bone powder-bound prodrug; type: in vitro ADME; settings: PBS vs serum
Method: Amounts of drug “regenerated” from the phosphonated parent prodrug were measured as follows. Washed bone powder-bound prodrugs from the above section were resuspended in 400 μL PBS or in 400 μL 50% (v/v in PBS) human or rat serum. […] Methanol (5× volume relative to supernatant) was added to each supernatant and the mixture was vortexed on a floor model vortex for 15 min to extract freed fluoroquinolone. The mixture was then centrifuged at 10 000 rpm for 15 min to pellet the insoluble material. The supernatant containing the extracted fluoroquinolone was recovered and evaporated to dryness in a speed vac. The dried pellets were resuspended in PBS and the amount of fluoroquinolone was determined by fluorescence measurements as described above. The percentage of drug regenerated was deduced from the difference between amount of bound prodrug and the amount of regenerated drug. The identity of regenerated drug was deduced by MIC determination; MICs of regenerated material matched those of parent drugs but not those of prodrugs.

[2] = Bone powder binding, fluorometric detection; settings: for Binding to bone (%) Fluorescence: 1 mg/ml compound, bone meal powder 10 mg/ml in PBS, 37° C., 1 h; for binding to osseous matter, in words: bisphosphonates bearing three hydroxy groups
Method: The ability of the example molecules to bind to bone powder was established in two parallel fashions, using either LC/MS or fluorometric detection. For LC/MS detection, a stock solution (5 mM) of the compound to be tested was added to 0.1M Tris-HCl buffer pH 7, 0.15M NaCl to reach a final concentration of 100 μM. Triplicate samples (1 mL) of the compound solutions were intensively shaken for 10 min with or without 25 mg of fresh or 20 mg of vacuum dried ground rat tibia bone. The samples were then centrifuged for 15 min at 10 000 g. The presence of unbound compound was measured by injection of 30 μL of each of the supernatants into an Agilent 1100™ LC/UV system. For fluorometric detection, an individual compound was dissolved in PBS or water (compound 52) and resuspended at a concentration of 1 mg/ml in a slurry of bone meal powder (Now Foods, Bloomingdale, Ill., USA) in PBS at 10 mg/ml. The suspension of drug/prodrug in bone meal powder was incubated at 37° C. for 1 h to allow for binding, and centrifuged at 13 000 rpm for 2 min, before recovering the supernatant. The bone meal powder pellet was then washed three times with 1 ml of PBS. All supernatants were saved and assessed for fluoroquinolone content by fluorescence measurements at excitation/emission wavelengths of 280/465 nm. The amount of fluoroquinolone was determined from standard curves generated for each experiment. Amount of drug/prodrug bound to bone powder was deduced from the difference between the input amount (typically 1 mg) and the amount recovered in the supernatants after binding. In all binding experiments, >99% of input drug was recovered in the supernatant for the parent drugs.

S. aureus ATCC 13709 = test: Prophylactic model of bone infection in rats; type: in vivo, rat; settings: for Measured bacterial titer (Log CFU/g of bone) Test compound: 15 mg/kg IV, 2 days prior to infection; for prophylactic effect in rat model of bone infection, in words: Table 4 and FIGS. 6-8, doses as in Table 4
Method: To determine the activity in vivo of bisphosphonated prodrugs of fluoroquinolones, compounds 52 and 107, derivatives of parent compounds moxifloxacin 3 (for 52), and compounds 39, 44, 49, 54, 121, 129, 141, 145, 149, derivatives of parent compound gatifloxacin 15, were used in a prophylactic model for infection. Specifically, S. aureus ATCC 13709 cells were grown overnight at 37° C. in brain heart infusion broth (BHIB). Cells were subcultured into fresh BHIB and incubated for 4 to 5 h at 37° C. The cells were washed twice with phosphate-buffered saline (PBS) and resuspended in BHIB supplemented with 10% (vol./vol.) fetal bovine serum at a density of approximately 10^10 colony forming units (CFU)/ml (based upon turbidimetry). The suspension was aliquoted and a portion was used to check the CFU count. The culture was stored frozen (−80° C.) and was used without subculture. For use as an inoculum the culture was thawed, diluted in PBS and kept in an ice bath until it was used.
Animals were infected as described by O'Reilly et al. (Antimicrobial Agents and Chemotherapy (1992), 36(12): 2693-97) to generate the bone infection. Female CD rats (age, 57 to 70 days; n=5/group; Charles River, St-Constant, Canada) were anaesthetized by isofluorane before and during the surgery. Following complete induction of anesthesia, the rat was placed ventral side up and hair was shaved from the surgical site. The skin over the leg was cleaned and disinfected (proviodine-ethanol 70%). A longitudinal incision below the knee joint was made in the sagital plane. The incision was made over the bone below the “knee joint” (tibia head or condyle) but not completely extending to the ankle. A high speed drill fitted with a 2 mm bulb bit was used to drill a hole into the medullar cavity of the tibia. Rats were injected intra-tibially with 0.05 ml 5% sodium morrhuate (sclerosing agent) and then with 0.05 ml of S. aureus suspension (ca. 5×10^5 CFU/rat). The hole was sealed by applying a small amount of dry dental cement which immediately absorbs fluids and adheres to the site. The wound was closed using 3 metal skin clips. Moxifloxacin 3 (as a positive control) was injected once at 10 mg/kg intravenously 1 h postinfection in saline, while the fluoroquinolone prodrugs (prepared in 0.9% saline) were injected as a single intravenous bolus dose at different time points prior to the infection. For comparison, the parent drug (moxifloxacin 3 or gatifloxacin 15) was also injected intravenously once at a molar equivalent dose at the same time point prior the infection.
Infected rats were sacrificed by CO2 asphyxiation 24 h postinfection to monitor the bacterial CFU count. Infected tibiae were removed, dissected free of soft tissue, and weighed. The bones were ground using a metal ball mill, resuspended in 5 ml 0.9% NaCl, serially diluted and processed for quantitative cultures. For compounds 39, 44, 49, 54, 141, 145, 149, 1 ml of the 0.9% NaCl solution was added to 50 mg of charcoal before serial dilutions. Treatment efficacies were measured in terms of Log viable bacteria (Log CFU per gram of bone). The results obtained for each group of rats were evaluated by calculating the mean Log CFU and standard deviation. The limit of detection is 2 Log CFU/g of bone. Statistical comparisons of viable bacterial counts for the different treated and untreated groups were performed with Dunnett's multiple-comparison test. Differences were considered significant when the P value was <0.05 when comparing treated infected animals to the untreated infected ones.

effect of the medium (presence or absence of serum) on regeneration rate [1] | Binding to bone (%) Fluorescence [2] | SMILES | binding to osseous matter, in words [2] | Measured bacterial titer (Log CFU/g of bone) Test compound (S. aureus ATCC 13709) | prophylactic effect in rat model of bone infection, in words (S. aureus ATCC 13709)
fairly similar rates | 98.9% | COc1c(N2C[C@@H]3CCCN[C@@H]3C2)c(F)cc2c(=O)c(C(=O)Oc3ccc(C(P(=O)(O)O)P(=O)(O)O)cc3)cn(C3CC3)c12 [Compound 85, 4-(Bisphosphonomethyl)phenyl 1-cyclopropyl-6-fluoro-1,4-dihydro-7-((4aS,7aS)-octahydropyrrolo[3,4-b]pyridin-6-yl)-8-methoxy-4-oxoquinoline-3-carboxylate] |  |  | 
fairly similar rates | 79.2% | COc1c(N2CCNC(C)C2)c(F)cc2c(=O)c(C(=O)Oc3ccc(C(P(=O)(O)O)P(=O)(O)O)cc3)cn(C3CC3)c12 (stereo not shown) [Compound 87, 4-(Bisphosphonomethyl)phenyl 7-(3-methylpiperazin-1-yl)-1-cyclopropyl-6-fluoro-1,4-dihydro-8-methoxy-4-oxoquinoline-3-carboxylate] |  |  | 
 | 89.6% | CCCC(=O)Oc1ccc(P(=O)(O)CP(=O)(O)O)cc1C(C)(C)CC(=O)N1CCN(c2c(F)cc3c(=O)c(C(=O)O)cn(C4CC4)c3c2OC)CC1C (stereo not shown) [Compound 149, 7-(4-(3-(2-butyroxy-5-((phosphonomethyl)phosphonoyl)phenyl)-3-methylbutanoyl)-3-methylpiperazin-1-yl)-1-cyclopropyl-6-fluoro-1,4-dihydro-8-methoxy-4-oxoquinoline-3-carboxylic acid] | less effectively bound | 5.16 ± 0.72 Log CFU/g of bone | unable to produce a positive result in vivo

Second part, the compound before the results:

SMILES | effect of the medium (presence or absence of serum) on regeneration rate [1] | Binding to bone (%) Fluorescence [2] | binding to osseous matter, in words [2] | Measured bacterial titer (Log CFU/g of bone) Test compound (S. aureus ATCC 13709) | prophylactic effect in rat model of bone infection, in words (S. aureus ATCC 13709)
COc1c(N2C[C@@H]3CCCN[C@@H]3C2)c(F)cc2c(=O)c(C(=O)OCC(=O)Nc3ccc(C(P(=O)(O)O)P(=O)(O)O)cc3)cn(C3CC3)c12 [Compound 73, (4-Bisphosphonomethylphenylcarbamoyl)methyl 1-cyclopropyl-6-fluoro-1,4-dihydro-7-((4aS,7aS)-octahydropyrrolo[3,4-b]pyridin-6-yl)-8-methoxy-4-oxoquinoline-3-carboxylate] | fairly similar rates | 99.0% |  |  | 
COc1c(N2CCNC(C)C2)c(F)cc2c(=O)c(C(=O)OCC(=O)N(C)C(P(=O)(O)O)P(=O)(O)O)cn(C3CC3)c12 (stereo not shown) [Compound 82, (N-Methyl-1,1-Bisphosphonomethylcarbamoyl)methyl 7-(3-methylpiperazin-1-yl)-1-cyclopropyl-6-fluoro-1,4-dihydro-8-methoxy-4-oxoquinoline-3-carboxylate] | fairly similar rates | 90.4% |  |  | 
COc1c(N2CCN(C(=O)CC(C)(C)c3cc(P(=O)(O)CP(=O)(O)O)ccc3OP(=O)(O)O)C(C)C2)c(F)cc2c(=O)c(C(=O)O)cn(C3CC3)c12 (stereo not shown) [Compound 153, 7-(4-(3-(2-phosphoryloxy-5-((phosphonomethyl)phosphonoyl)phenyl)-3-methylbutanoyl)-3-methylpiperazin-1-yl)-1-cyclopropyl-6-fluoro-1,4-dihydro-8-methoxy-4-oxoquinoline-3-carboxylic acid] |  | 0% | less effectively bound; also recorded: not bound at all | 4.08 ± 0.54 Log CFU/g of bone | unable to produce a positive result in vivo
